Measured values from patent US20240358668A1, “METHODS AND CO[…] AM[…] CARD[…] USING (R)-2-AMINO-3-PH[…]” (AXSOME THERAPEUTICS, INC., priority 2021, published 2024).

System: participants with narcolepsy or OSA
Assay: 1-year OLE study: clinical laboratory assessments (total cholesterol, triglycerides, glucose), OLE baseline to week 40
Type: in vivo, human
Description: A 1-year open-label extension (OLE) study was performed with 374 participants to examined whether clinically significant weight loss (≥5%) in this population had favorable effects on biomarkers of cardiovascular risk compared to no such weight loss. The study measured changes in weight and BP (parent study baseline to OLE week 40) and clinical laboratory assessments (OLE baseline to week 40) in participants with narcolepsy (n=124) or OSA (n=250) who received solriamfetol at doses of 75, 150, or 300 mg/d.
We evaluated changes in weight and BP (parent study baseline to OLE week 40) and clinical laboratory assessments (OLE baseline to week 40) in participants with narcolepsy (n=124) or OSA (n=250) from the OLE study.

[1] = Weight loss <5% at Week 40, 75 mg/d
[2] = Weight loss <5% at Week 40, 150 mg/d
[3] = Weight loss <5% at Week 40, 300 mg/d
[4] = Weight loss <5% at Week 40, all doses
[5] = Weight loss ≥5% at Week 40, 75 mg/d
[6] = Weight loss ≥5% at Week 40, 150 mg/d
[7] = Weight loss ≥5% at Week 40, 300 mg/d
[8] = Weight loss ≥5% at Week 40, all doses

## NC(=O)OC[C@H](N)Cc1ccccc1 [Solriamfetol, (R)-2-amino-3-phenylpropyl carbamate]
[1]
  Glucose Change - Wk 40, Mean (SD): −0.1 (3.0) mmol/L
  Glucose Change - Wk 40, Median: 0.2 mmol/L
  Glucose category High, Week 40: 16(76.2) n (%)
  Glucose category Low, Week 40: 0 n (%)
  Glucose category Normal, Week 40: 5(23.8) n (%)
  TC Change - Wk 40, Mean (SD): −0.1 (0.7) mmol/L
  TC Change - Wk 40, Median: 0.2 mmol/L
  TG Change - Wk 40, Mean (SD): 0.2 (0.9) mmol/L
  TG Change - Wk 40, Median: -0.1 mmol/L
  Total cholesterol category High, Week 40: 8(38.1) n (%)
  Total cholesterol category Low, Week 40: 0 n (%)
  Total cholesterol category Normal, Week 40: 13(61.9) n (%)
  Triglycerides category High, Week 40: 11(52.4) n (%)
  Triglycerides category Low, Week 40: 0 n (%)
  Triglycerides category Normal, Week 40: 10(47.6) n (%)
[2]
  Glucose Change - Wk 40, Mean (SD): −0.1 (1.1) mmol/L
  Glucose Change - Wk 40, Median: -0.1 mmol/L
  Glucose category High, Week 40: 47(46.1) n (%)
  Glucose category Low, Week 40: 0 n (%)
  Glucose category Normal, Week 40: 55(53.9) n (%)
  TC Change - Wk 40, Mean (SD): 0.1 (0.7) mmol/L
  TC Change - Wk 40, Median: 0.1 mmol/L
  TG Change - Wk 40, Mean (SD): −0.1 (1.0) mmol/L
  TG Change - Wk 40, Median: -0.0 mmol/L
  Total cholesterol category High, Week 40: 46(44.2) n (%)
  Total cholesterol category Low, Week 40: 0 n (%)
  Total cholesterol category Normal, Week 40: 58(55.8) n (%)
  Triglycerides category High, Week 40: 39(37.5) n (%)
  Triglycerides category Low, Week 40: 0 n (%)
  Triglycerides category Normal, Week 40: 65(62.5) n (%)
[3]
  Glucose Change - Wk 40, Mean (SD): −0.1 (1.9) mmol/L
  Glucose Change - Wk 40, Median: 0.0 mmol/L
  Glucose category High, Week 40: 69(48.9) n (%)
  Glucose category Low, Week 40: 0 n (%)
  Glucose category Normal, Week 40: 72(51.1) n (%)
  TC Change - Wk 40, Mean (SD): 0.1 (0.6) mmol/L
  TC Change - Wk 40, Median: 0.100 mmol/L
  TG Change - Wk 40, Mean (SD): 0.0 (0.7) mmol/L
  TG Change - Wk 40, Median: -0.1 mmol/L
  Total cholesterol category High, Week 40: 46(31.9) n (%)
  Total cholesterol category Low, Week 40: 0 n (%)
  Total cholesterol category Normal, Week 40: 98(68.1) n (%)
  Triglycerides category High, Week 40: 50(34.7) n (%)
  Triglycerides category Low, Week 40: 0 n (%)
  Triglycerides category Normal, Week 40: 94(65.3) n (%)
[4]
  Glucose Change - Wk 40, Mean (SD): −0.1 (1.8) mmol/L
  Glucose Change - Wk 40, Median: -0.0 mmol/L
  Glucose category High, Week 40: 132(50.0) n (%)
  Glucose category Low, Week 40: 0 n (%)
  Glucose category Normal, Week 40: 132(50.0) n (%)
  TC Change - Wk 40, Mean (SD): 0.1 (0.6) mmol/L
  TC Change - Wk 40, Median: 0.100 mmol/L
  TG Change - Wk 40, Mean (SD): −0.0 (0.9) mmol/L
  TG Change - Wk 40, Median: -0.0 mmol/L
  Total cholesterol category High, Week 40: 100(37.2) n (%)
  Total cholesterol category Low, Week 40: 0 n (%)
  Total cholesterol category Normal, Week 40: 169(62.8) n (%)
  Triglycerides category High, Week 40: 100(37.2) n (%)
  Triglycerides category Low, Week 40: 0 n (%)
  Triglycerides category Normal, Week 40: 169(62.8) n (%)
[5]
  Glucose Change - Wk 40, Mean (SD): -0.5 mmol/L
  Glucose Change - Wk 40, Median: -0.5 mmol/L
  Glucose category High, Week 40: 1(100) n (%)
  Glucose category Low, Week 40: 0 n (%)
  Glucose category Normal, Week 40: 0 n (%)
  TC Change - Wk 40, Mean (SD): 1.1 mmol/L
  TC Change - Wk 40, Median: 1.1 mmol/L
  TG Change - Wk 40, Mean (SD): 0.3 mmol/L
  TG Change - Wk 40, Median: 0.3 mmol/L
  Total cholesterol category High, Week 40: 0 n (%)
  Total cholesterol category Low, Week 40: 0 n (%)
  Total cholesterol category Normal, Week 40: 1(100) n (%)
  Triglycerides category High, Week 40: 0 n (%)
  Triglycerides category Low, Week 40: 0 n (%)
  Triglycerides category Normal, Week 40: 1(100) n (%)
[6]
  Glucose Change - Wk 40, Mean (SD): −0.2 (0.8) mmol/L
  Glucose Change - Wk 40, Median: -0.2 mmol/L
  Glucose category High, Week 40: 7(31.8) n (%)
  Glucose category Low, Week 40: 0 n (%)
  Glucose category Normal, Week 40: 15(68.2) n (%)
  TC Change - Wk 40, Mean (SD): 0.2 (0.5) mmol/L
  TC Change - Wk 40, Median: 0.2 mmol/L
  TG Change - Wk 40, Mean (SD): −0.1 (0.4) mmol/L
  TG Change - Wk 40, Median: -0.2 mmol/L
  Total cholesterol category High, Week 40: 4(18.2) n (%)
  Total cholesterol category Low, Week 40: 0 n (%)
  Total cholesterol category Normal, Week 40: 18(81.8) n (%)
  Triglycerides category High, Week 40: 6(27.3) n (%)
  Triglycerides category Low, Week 40: 0 n (%)
  Triglycerides category Normal, Week 40: 16(72.7) n (%)
[7]
  Glucose Change - Wk 40, Mean (SD): −0.2 (1.5) mmol/L
  Glucose Change - Wk 40, Median: -0.1 mmol/L
  Glucose category High, Week 40: 19(26.0) n (%)
  Glucose category Low, Week 40: 0 n (%)
  Glucose category Normal, Week 40: 54(74.0) n (%)
  TC Change - Wk 40, Mean (SD): 0.2 (0.6) mmol/L
  TC Change - Wk 40, Median: 0.2 mmol/L
  TG Change - Wk 40, Mean (SD): −0.3 (1.0) mmol/L
  TG Change - Wk 40, Median: -0.2 mmol/L
  Total cholesterol category High, Week 40: 18(24.7) n (%)
  Total cholesterol category Low, Week 40: 0 n (%)
  Total cholesterol category Normal, Week 40: 55(75.3) n (%)
  Triglycerides category High, Week 40: 15(20.5) n (%)
  Triglycerides category Low, Week 40: 0 n (%)
  Triglycerides category Normal, Week 40: 58(79.5) n (%)
[8]
  Glucose Change - Wk 40, Mean (SD): −0.2 (1.4) mmol/L
  Glucose Change - Wk 40, Median: -0.1 mmol/L
  Glucose category High, Week 40: 27(28.1) n (%)
  Glucose category Low, Week 40: 0 n (%)
  Glucose category Normal, Week 40: 69(71.9) n (%)
  TC Change - Wk 40, Mean (SD): 0.2 (0.6) mmol/L
  TC Change - Wk 40, Median: 0.2 mmol/L
  TG Change - Wk 40, Mean (SD): −0.2 (0.9) mmol/L
  TG Change - Wk 40, Median: -0.2 mmol/L
  Total cholesterol category High, Week 40: 22(22.9) n (%)
  Total cholesterol category Low, Week 40: 0 n (%)
  Total cholesterol category Normal, Week 40: 74(77.1) n (%)
  Triglycerides category High, Week 40: 21(21.9) n (%)
  Triglycerides category Low, Week 40: 0 n (%)
  Triglycerides category Normal, Week 40: 75(78.1) n (%)
Participants with weight loss, week 40 (baseline 22.3%)
  percentage of participants with high total cholesterol: 22.9%
Participants with weight loss, week 40 (baseline 26.6%)
  percentage of participants with high triglycerides: 21.9%
Participants with weight loss, week 40 (baseline 36.6%)
  percentage of participants with high serum glucose: 28.1%
Participants without weight loss, week 40 (baseline 32.7%)
  percentage of participants with high total cholesterol: 37.2%
Participants without weight loss, week 40 (baseline 37.1%)
  percentage of participants with high triglycerides: 37.2%
Participants without weight loss, week 40 (baseline 43.3%)
  percentage of participants with high serum glucose: 50%
